Measurements as given in patent publication US20250352512A2, “C4-S[…] DERIVATIVES AND METHODS OF USING” (priority 2022, published 2025).
Like-named read-outs stand apart in the source and are kept apart here.

Tests used:
5-HT1A receptor = target: T1, 5-HT1A receptor (Homo sapiens, UniProt P08908); type: cell-based; settings: for 5-HT1A receptor modulation: comparison of +5-HT1A with -5-HT1A cultures, 4 mM forskolin
T1 construct: host or cells: CHO-K1
T1 sequence (P08908 1-422): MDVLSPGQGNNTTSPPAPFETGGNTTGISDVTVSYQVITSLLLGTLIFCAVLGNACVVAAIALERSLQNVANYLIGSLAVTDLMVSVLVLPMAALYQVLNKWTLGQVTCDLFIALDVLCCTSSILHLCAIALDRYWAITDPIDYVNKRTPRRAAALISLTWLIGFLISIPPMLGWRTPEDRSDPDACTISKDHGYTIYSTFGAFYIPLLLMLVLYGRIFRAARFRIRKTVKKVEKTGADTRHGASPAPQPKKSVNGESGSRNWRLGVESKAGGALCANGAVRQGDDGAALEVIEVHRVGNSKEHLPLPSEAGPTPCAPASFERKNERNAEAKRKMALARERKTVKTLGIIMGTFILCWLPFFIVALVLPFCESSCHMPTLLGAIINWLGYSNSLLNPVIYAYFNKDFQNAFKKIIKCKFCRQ

[1] = target: T2, 5-HT2A receptor (5-HT2AR) (Mus musculus, UniProt P35363); assay: Drug-induced Head Twitch Response (HTR) in mice; type: in vivo; settings: C57BL/6-Elite mice, i.p. 1 mg/kg, 15-to-30-minute window following administration
T2 construct: tissue Charles River; host or cells: living C57BL/6-Elite mice (neuronal receptor)
T2 sequence (P35363 whole entry): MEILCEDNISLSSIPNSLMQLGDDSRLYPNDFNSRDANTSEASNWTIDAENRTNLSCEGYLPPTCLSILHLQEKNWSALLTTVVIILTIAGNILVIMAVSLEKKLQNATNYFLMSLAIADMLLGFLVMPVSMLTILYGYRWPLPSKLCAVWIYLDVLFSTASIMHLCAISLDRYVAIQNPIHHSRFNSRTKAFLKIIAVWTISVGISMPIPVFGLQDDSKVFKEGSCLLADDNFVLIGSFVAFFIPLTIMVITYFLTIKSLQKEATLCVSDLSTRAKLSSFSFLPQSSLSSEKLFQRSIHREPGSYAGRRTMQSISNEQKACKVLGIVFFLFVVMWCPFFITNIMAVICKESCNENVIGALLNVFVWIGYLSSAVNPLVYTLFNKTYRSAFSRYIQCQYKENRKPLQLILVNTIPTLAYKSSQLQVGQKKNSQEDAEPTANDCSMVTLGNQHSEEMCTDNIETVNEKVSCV

5-HT2A receptor = 5-HT2A receptor (Homo sapiens, UniProt P28223); assay: [3H]ketanserin radioligand competition binding assay (SPA); settings: fixed (1 nM) [3H]ketanserin, membranes containing 5-HT2A
Chain of 5-HT2A receptor (P28223 whole entry): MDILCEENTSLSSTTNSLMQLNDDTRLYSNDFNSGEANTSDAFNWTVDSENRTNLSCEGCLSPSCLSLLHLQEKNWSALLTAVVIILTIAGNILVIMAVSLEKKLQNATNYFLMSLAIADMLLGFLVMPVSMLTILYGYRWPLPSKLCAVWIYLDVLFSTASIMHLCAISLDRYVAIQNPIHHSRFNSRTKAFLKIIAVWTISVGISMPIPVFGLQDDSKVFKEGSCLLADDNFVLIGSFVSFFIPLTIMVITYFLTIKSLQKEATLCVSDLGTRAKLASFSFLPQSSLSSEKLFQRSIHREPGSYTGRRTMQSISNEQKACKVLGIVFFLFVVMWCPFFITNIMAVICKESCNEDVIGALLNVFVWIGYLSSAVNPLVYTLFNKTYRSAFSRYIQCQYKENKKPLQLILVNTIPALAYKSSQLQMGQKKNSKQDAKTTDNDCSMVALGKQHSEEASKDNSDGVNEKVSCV

[2] = Metabolic stability / psilocin release in human liver S9 fractions; type: in vitro ADME; settings: 2.5 μM, 400 μg/ml HLS9, NADPH, 37° C.
Text: (§1) A fundamental evaluation in drug development is the assessment of absorption, distribution, metabolism, excretion, and pharmacokinetics (ADME/PK) (Eddershaw et al., 2000, Drug Discovery Today 5(9): 409-414). […] Drug stability upon exposure to human liver microsomes and liver S9 cellular fractions is a common in vitro assay to approximate in vivo, liver-based drug metabolism (Richardson et al., 2016 Drug Metabolism Letters 10:83-90). First-pass metabolism is also often approximated in vitro using intestinal microsome and cellular S9 fractions (Hatley et al., 2017, Biopharmaceuticals & Drug Disposition, 38(2):155-160). […] Supernatants were analyzed for the presence of candidate prodrugs (parent molecule) and psilocin (the predicted metabolite) using Orbitrap LC-MS (Thermo Scientific) using previously described methods (Menendez-Perdomo et al., 2021, J. Mass Spectrom., 56: e4683). […] Assay concentrations (μM) of both parent ‘prodrug’ molecule and psilocin metabolite, as quantified through LC-MS using routine standard curve procedures, were plotted as functions of assay time (minutes). The metabolism rate (TI/2) was determined from the metabolism curve plot using the one phase decay feature of GraphPad PRISM software (Version 9.2.0). The quantity of parent prodrug at time zero was set as 100%. […]

[3] = Metabolic stability / psilocin release in human liver microsomes; type: in vitro ADME; settings: 2.5 μM, 400 μg/ml HLM, NADPH, 37° C.
Text: as §1

[4] = Metabolic stability / psilocin release in human AB serum; type: in vitro ADME; settings: 10% human AB serum
Text: as §1

[5] = Stability assay in enzyme-free control buffer; type: in vitro ADME; settings: enzyme-free buffer pH 7.4, 37° C., 2 hours
Text: as §1

[6] = +5-HT1A cells stimulated with 4 mM forskolin

SMILES	5-HT1A receptor modulation (5-HT1A receptor)	incidences of Head Twitch Response (HTR) relative to vehicle [1]	further results
CN(C)CCc1c[nH]c2cccc(O[Si](c3ccccc3)(c3ccccc3)C(C)(C)C)c12 [A(III)]	suggests receptor modulation at higher ligand concentrations	Elevated incidences of HTR	–
CN(C)CCc1c[nH]c2cccc(OC(=O)OCC(Cl)(Cl)Cl)c12 [B(IV)]	suggests no receptor modulation	Elevated incidences of HTR	–
CCCCCCOC(=O)Oc1cccc2[nH]cc(CCN(C)C)c12 [B(V)]	suggests no receptor modulation	–	–
CCC(=O)OCOc1cccc2c1c(CCN(C)C)cn2C(=O)CC [D(XIX)]	suggests significant receptor modulation	Elevated incidences of HTR	–
CN(C)CCc1c[nH]c2cccc(OP3(=O)OCC(C)(C)CO3)c12 [F(II)]	reveals receptor modulation	Elevated incidences of HTR	–
CN(C)CCc1c[nH]c2cccc(O)c12 [psilocin, reference compound]	–	–	competition binding at the 5-HT2A receptor (5-HT2A receptor): binding; cAMP levels with increasing doses of ligand (5-HT1A receptor; [6]): reduction in cAMP levels
CN(C)CCc1c[nH]c2cccc(OP(=O)(O)O)c12 [psilocybin]	–	–	stability and conversion to psilocin in liver fractions (HLS9) [2]: stable in liver fractions with no conversion to psilocin; stability and conversion to psilocin in liver fractions (HLM) [3]: stable in liver fractions with no conversion to psilocin; stability and conversion to psilocin in serum [4]: stable in serum with no conversion to psilocin; stability in assay buffer [5]: stability of psilocybin was confirmed in assay buffer
NCCc1c[nH]c2ccc(O)cc12 [serotonin, reference compound]	–	–	cAMP levels with increasing doses of ligand (5-HT1A receptor): reduction in cAMP levels
N[C@@H](Cc1c[nH]c2ccccc12)C(=O)O [tryptophan, reference compound]	–	–	competition binding at the 5-HT2A receptor (5-HT2A receptor): no binding; cAMP levels with increasing doses of ligand (5-HT1A receptor; [6]): no reduction in cellular cAMP levels
